The values that follow come from ChEMBL document CHEMBL3991601, “The target landscape of clinical kinase drugs” (Science, 2017).

Calls of active or inactive are those of the source. For most assays here, no stated cut-off is given here; in the data, actives have a measured Kd and inactives only a lower limit.

Test [1] has as its target T1, Adenine phosphoribosyltransferase (Homo sapiens, UniProt P07741).
T1 sequence (P07741 whole entry): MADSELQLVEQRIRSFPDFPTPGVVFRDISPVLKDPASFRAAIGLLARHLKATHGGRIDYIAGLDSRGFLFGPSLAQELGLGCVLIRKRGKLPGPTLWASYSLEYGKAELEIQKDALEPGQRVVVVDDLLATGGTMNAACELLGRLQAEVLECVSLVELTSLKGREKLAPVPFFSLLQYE

For test [2], the target named is Cyclin-dependent kinase 7 (Homo sapiens, UniProt P50613).
The target in a further test is Ephrin type-A receptor 5 (Homo sapiens, UniProt P54756).
For test [3], the target named is Serine/threonine-protein kinase/endoribonuclease IRE2 (Homo sapiens, UniProt Q76MJ5).
Test [4] addresses T2, Serine/threonine-protein kinase LATS1 (Homo sapiens, UniProt O95835).
T2 sequence (O95835 whole entry): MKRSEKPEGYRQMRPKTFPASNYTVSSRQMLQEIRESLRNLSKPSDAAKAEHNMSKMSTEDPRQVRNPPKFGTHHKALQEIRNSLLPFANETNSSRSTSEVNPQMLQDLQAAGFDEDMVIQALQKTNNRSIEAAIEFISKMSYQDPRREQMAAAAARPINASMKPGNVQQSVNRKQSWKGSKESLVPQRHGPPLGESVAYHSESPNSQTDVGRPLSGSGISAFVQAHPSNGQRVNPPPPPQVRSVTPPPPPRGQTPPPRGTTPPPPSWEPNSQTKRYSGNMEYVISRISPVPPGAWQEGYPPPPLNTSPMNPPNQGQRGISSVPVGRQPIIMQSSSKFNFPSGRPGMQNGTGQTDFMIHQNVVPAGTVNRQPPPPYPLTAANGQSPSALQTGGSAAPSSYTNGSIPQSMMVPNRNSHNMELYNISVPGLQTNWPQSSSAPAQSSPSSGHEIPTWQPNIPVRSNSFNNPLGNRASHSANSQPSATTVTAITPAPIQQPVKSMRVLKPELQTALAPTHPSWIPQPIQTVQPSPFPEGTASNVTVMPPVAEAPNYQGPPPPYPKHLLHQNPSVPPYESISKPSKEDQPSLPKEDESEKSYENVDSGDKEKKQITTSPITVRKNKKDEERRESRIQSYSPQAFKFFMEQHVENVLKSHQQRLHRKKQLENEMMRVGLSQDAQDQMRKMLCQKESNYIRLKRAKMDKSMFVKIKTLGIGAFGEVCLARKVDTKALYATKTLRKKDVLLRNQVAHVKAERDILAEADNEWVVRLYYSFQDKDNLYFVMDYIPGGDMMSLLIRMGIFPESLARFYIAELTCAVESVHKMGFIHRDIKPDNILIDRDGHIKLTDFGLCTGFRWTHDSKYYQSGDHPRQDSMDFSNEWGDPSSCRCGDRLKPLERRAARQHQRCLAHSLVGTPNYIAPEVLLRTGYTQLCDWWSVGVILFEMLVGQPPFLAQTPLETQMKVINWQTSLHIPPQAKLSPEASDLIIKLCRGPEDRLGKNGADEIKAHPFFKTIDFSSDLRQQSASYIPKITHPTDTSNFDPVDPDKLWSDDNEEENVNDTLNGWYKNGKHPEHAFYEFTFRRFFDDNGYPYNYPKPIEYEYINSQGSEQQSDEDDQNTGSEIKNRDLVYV

Test [5] addresses Serine/threonine-protein kinase N1 (Homo sapiens, UniProt Q16512).
Test [6] has as its target 5'-AMP-activated protein kinase catalytic subunit alpha-1 (Homo sapiens, UniProt Q13131).
The target of test [7] is cAMP-dependent protein kinase catalytic subunit alpha (Homo sapiens, UniProt P17612).
Test [8] deals with Protein-tyrosine kinase 6 (Homo sapiens, UniProt Q13882).
Test [9] has as its target T3, Serine/threonine-protein kinase TBK1 (Homo sapiens, UniProt Q9UHD2).
T3 sequence (Q9UHD2 whole entry): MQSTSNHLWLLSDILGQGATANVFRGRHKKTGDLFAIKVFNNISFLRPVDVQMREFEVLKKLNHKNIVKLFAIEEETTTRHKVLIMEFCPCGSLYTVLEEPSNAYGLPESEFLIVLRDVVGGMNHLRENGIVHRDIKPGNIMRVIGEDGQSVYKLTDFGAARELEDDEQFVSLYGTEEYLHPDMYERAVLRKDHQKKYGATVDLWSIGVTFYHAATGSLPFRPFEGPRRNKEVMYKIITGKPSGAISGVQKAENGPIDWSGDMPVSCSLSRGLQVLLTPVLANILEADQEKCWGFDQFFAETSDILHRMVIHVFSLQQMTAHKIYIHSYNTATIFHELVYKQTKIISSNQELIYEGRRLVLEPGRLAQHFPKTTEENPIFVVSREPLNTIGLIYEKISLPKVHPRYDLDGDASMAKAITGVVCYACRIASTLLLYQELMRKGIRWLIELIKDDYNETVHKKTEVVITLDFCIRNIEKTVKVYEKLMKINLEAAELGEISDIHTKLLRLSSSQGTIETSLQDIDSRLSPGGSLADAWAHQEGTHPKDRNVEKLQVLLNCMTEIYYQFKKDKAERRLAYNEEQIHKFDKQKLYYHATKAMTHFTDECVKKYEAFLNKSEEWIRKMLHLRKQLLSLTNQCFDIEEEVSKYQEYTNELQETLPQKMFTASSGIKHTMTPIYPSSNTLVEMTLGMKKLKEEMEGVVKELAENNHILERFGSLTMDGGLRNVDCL

In a further test the target is DNA topoisomerase 2-beta (Homo sapiens, UniProt Q02880).

Protein-tyrosine kinase 6, sequence (Q13882 whole entry): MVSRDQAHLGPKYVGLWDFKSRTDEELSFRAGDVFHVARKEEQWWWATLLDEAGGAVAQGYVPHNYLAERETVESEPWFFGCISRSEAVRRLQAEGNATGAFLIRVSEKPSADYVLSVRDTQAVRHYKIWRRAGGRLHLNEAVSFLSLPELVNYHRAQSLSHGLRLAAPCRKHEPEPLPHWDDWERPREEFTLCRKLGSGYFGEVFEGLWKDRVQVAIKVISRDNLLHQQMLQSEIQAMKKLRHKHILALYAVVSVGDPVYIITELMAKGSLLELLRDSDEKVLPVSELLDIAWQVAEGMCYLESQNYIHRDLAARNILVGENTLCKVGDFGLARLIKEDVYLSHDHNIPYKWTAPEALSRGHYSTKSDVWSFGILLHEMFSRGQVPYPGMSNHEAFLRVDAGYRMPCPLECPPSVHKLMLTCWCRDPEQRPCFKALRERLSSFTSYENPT
Serine/threonine-protein kinase N1, sequence (Q16512 whole entry): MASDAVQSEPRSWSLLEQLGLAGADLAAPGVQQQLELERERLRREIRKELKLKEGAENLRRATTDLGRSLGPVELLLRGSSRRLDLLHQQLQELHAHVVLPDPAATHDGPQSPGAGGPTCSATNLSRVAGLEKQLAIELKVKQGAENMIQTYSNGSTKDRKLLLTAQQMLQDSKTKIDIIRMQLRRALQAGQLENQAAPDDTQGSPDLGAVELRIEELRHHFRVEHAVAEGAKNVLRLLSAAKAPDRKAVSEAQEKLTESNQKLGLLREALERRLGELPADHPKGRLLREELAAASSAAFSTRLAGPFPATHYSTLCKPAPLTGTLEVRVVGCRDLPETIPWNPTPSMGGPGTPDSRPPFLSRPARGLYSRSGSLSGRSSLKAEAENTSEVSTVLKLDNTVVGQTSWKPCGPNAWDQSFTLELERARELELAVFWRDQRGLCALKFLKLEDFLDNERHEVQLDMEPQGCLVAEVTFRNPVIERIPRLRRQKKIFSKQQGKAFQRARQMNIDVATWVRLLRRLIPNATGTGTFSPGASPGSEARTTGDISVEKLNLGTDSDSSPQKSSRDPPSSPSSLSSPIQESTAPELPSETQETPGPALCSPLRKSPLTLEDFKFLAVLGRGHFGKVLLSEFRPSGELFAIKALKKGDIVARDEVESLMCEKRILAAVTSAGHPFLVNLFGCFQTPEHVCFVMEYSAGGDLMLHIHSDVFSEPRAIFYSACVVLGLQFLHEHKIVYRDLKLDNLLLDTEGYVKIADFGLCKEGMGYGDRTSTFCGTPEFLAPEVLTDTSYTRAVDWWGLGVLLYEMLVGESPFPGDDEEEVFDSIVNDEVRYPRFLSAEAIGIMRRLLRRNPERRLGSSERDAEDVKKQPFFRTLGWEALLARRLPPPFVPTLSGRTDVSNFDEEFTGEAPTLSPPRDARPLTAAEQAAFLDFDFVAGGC
Ephrin type-A receptor 5, sequence (P54756 whole entry): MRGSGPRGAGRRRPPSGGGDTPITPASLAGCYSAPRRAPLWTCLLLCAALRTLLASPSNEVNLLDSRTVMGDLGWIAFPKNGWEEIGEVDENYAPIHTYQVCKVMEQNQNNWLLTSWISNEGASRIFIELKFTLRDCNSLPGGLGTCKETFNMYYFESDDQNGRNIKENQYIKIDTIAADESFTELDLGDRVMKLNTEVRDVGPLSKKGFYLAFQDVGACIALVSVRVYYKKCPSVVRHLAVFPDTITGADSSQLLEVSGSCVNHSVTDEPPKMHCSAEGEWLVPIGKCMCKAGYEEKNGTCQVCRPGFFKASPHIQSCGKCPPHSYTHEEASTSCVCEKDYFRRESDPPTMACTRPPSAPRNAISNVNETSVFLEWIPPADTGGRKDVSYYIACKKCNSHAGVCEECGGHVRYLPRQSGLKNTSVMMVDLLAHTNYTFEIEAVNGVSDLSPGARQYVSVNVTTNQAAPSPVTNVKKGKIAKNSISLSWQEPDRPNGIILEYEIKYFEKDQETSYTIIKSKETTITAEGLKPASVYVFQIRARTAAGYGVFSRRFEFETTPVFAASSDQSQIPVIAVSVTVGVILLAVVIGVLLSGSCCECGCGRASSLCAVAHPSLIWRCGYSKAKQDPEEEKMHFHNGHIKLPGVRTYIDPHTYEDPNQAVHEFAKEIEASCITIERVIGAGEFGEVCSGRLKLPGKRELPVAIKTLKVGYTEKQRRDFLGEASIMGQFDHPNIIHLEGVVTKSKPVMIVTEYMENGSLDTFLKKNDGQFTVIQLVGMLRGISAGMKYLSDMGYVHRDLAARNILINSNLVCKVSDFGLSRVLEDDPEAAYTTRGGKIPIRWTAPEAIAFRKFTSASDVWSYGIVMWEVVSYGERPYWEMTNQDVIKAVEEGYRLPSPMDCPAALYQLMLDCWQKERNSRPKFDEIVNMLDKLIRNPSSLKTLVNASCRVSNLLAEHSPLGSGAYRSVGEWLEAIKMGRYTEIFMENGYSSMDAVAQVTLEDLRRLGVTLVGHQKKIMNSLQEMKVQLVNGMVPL
Serine/threonine-protein kinase/endoribonuclease IRE2, sequence (Q76MJ5 whole entry): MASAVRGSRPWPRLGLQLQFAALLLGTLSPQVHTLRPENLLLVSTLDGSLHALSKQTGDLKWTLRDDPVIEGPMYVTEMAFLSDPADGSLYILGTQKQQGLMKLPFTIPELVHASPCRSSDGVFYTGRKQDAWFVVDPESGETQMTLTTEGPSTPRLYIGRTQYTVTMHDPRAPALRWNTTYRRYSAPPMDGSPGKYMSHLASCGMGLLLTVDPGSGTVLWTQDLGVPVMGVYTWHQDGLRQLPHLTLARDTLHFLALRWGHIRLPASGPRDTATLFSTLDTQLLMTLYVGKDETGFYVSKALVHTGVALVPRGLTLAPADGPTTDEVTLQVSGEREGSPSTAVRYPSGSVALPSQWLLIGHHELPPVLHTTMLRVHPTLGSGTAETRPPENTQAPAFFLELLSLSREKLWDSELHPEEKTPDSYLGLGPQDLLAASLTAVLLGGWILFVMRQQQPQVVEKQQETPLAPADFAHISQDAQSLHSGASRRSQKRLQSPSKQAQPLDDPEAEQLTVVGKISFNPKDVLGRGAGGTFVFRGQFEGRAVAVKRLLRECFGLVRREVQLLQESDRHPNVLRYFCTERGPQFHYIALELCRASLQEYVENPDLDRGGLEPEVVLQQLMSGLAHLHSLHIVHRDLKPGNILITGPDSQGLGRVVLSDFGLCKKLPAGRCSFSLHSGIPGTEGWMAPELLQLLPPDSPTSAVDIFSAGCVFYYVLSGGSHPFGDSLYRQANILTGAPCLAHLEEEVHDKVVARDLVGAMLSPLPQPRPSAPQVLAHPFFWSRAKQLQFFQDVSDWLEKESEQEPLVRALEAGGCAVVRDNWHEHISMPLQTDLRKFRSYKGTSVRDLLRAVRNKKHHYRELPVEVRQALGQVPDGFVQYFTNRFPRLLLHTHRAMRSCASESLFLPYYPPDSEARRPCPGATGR
5'-AMP-activated protein kinase catalytic subunit alpha-1, sequence (Q13131 whole entry): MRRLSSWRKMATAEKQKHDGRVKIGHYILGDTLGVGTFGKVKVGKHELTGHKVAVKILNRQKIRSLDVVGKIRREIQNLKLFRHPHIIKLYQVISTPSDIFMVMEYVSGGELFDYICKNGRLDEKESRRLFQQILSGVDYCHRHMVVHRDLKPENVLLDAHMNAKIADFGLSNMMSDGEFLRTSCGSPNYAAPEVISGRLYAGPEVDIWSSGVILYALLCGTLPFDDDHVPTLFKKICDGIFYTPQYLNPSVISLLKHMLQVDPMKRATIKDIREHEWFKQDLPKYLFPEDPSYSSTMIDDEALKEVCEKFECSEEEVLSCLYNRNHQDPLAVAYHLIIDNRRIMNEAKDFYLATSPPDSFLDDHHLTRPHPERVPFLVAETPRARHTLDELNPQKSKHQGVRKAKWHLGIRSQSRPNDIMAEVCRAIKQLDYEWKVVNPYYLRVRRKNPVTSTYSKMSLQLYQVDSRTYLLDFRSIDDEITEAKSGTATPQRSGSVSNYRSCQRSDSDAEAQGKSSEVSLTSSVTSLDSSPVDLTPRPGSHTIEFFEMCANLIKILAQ
Cyclin-dependent kinase 7, sequence (P50613 whole entry): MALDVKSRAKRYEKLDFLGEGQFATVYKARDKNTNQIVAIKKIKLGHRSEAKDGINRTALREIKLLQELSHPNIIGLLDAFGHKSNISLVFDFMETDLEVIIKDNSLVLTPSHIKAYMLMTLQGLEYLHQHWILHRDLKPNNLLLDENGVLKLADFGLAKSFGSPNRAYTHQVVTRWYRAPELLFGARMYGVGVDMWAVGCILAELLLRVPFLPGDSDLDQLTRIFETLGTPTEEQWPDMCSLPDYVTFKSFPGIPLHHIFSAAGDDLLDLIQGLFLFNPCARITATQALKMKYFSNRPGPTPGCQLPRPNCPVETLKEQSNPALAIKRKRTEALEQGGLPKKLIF

In the case of `Cc1cc(Nc2nc(N[C@@H](C)c3ncc(F)cn3)ncc2Cl)n[nH]1` [AZD-1480], the Kd (in [1]; in test [2]; on Ephrin type-A receptor 5; in test [3]; in [4]; in [5]) was > 30 µM (inactive) each time. The Kd (in test [6]; in test [7]; in [8]; in test [9]; on DNA topoisomerase 2-beta) was > 30 µM (inactive) throughout.

With `Cc1ccc(C(=O)Nc2ccc(Oc3cc4cnn(C)c4cc3-c3cn[nH]c3)c(F)c2)c(=O)n1-c1ccc(F)cc1` [MERESTINIB], the Kd (in test [1]; in test [2]; at Ephrin type-A receptor 5; in test [3]; in test [4]; in [5]) was > 30 µM (inactive) in each case. Besides, the Kd (in test [6]; in test [7]; in [8]; in test [9]; on DNA topoisomerase 2-beta) was > 30 µM (inactive) throughout.

With `C#Cc1cccc(Nc2ncnc3cc4c(cc23)OCCOCCOCCO4)c1` [ICOTINIB], the Kd (in [1]; in [2]; at Ephrin type-A receptor 5; in test [3]; in test [4]; in [5]) was > 30 µM (inactive) throughout. The Kd (in [6]; in test [7]; in [8]; in test [9]; on DNA topoisomerase 2-beta) was > 30 µM (inactive) throughout.

On to `COc1cc(F)c(F)c(Nc2ccc(I)cc2F)c1NS(=O)(=O)C1(C[C@H](O)CO)CC1` [REFAMETINIB], for which the Kd (in [1]; in test [2]; at Ephrin type-A receptor 5; in test [3]; in [4]; in [5]) was > 30 µM (inactive) in each case. In addition, the Kd (in test [6]; in test [7]; in [8]; in test [9]; on DNA topoisomerase 2-beta) was > 30 µM (inactive) each time.

For the compound `O[C@H]1CC[C@H](Nc2ncc3nc(Nc4c(F)cc(F)cc4F)n([C@H]4CCOC4)c3n2)CC1` [TANZISERTIB], the Kd (in test [1]; in test [2]; at Ephrin type-A receptor 5; in test [3]; in test [4]; in [5]) was > 30 µM (inactive) each time. Further, the Kd (in test [6]; in [7]; in [8]; in test [9]; at DNA topoisomerase 2-beta) was > 30 µM (inactive) each time.

With `COc1cc2ncnc3c2cc1OCCCCCN(C)Cc1ccc(Br)cc1N3` [JNJ-26483327], the Kd (in [1]; in test [2]; at Ephrin type-A receptor 5; in test [3]; in test [4]; in test [5]) was > 30 µM (inactive) throughout. Also, the Kd (in test [6]; in test [7]; in test [8]; in [9]; on DNA topoisomerase 2-beta) was > 30 µM (inactive) each time.

Consider `N#CCNC(=O)c1ccc(-c2ccnc(Nc3ccc(N4CCOCC4)cc3)n2)cc1` [MOMELOTINIB], for which the Kd (in test [1]; in [2]; on Ephrin type-A receptor 5; in test [3]; in [5]; in [6]) was > 30 µM (inactive) each time. In addition, the Kd (in test [7]; in test [8]; at DNA topoisomerase 2-beta) was > 30 µM (inactive) throughout.

With `O=S(=O)(c1cccc2c(O)nccc12)N1CCCNCC1` [HYDROXYFASUDIL], the Kd in test [1] is > 30 µM (inactive); in test [2], > 30 µM (inactive); on Ephrin type-A receptor 5, > 30 µM (inactive); in test [3], > 30 µM (inactive); in test [4], > 30 µM (inactive); in test [5], 2.92 µM (active). In addition, the Kd (in test [6]; in [8]; in [9]; on DNA topoisomerase 2-beta) was > 30 µM (inactive) throughout.

For the compound `CC(C)CC(=O)Nc1[nH]nc2c1CN(C(=O)C1CCN(C)CC1)C2(C)C` [PHA-793887], the Kd is > 30 µM (inactive) in [1]; 0.008 µM (active) in [2]; > 30 µM (inactive) on Ephrin type-A receptor 5; > 30 µM (inactive) in test [3]; > 30 µM (inactive) in [4]; > 30 µM (inactive) in test [6]. For the same compound, the Kd (in [7]; in test [8]; in test [9]; on DNA topoisomerase 2-beta) was > 30 µM (inactive) each time.

In the case of `O=C(NOC[C@H](O)CO)c1ccc(F)c(F)c1Nc1ccc(I)cc1F` [MIRDAMETINIB], the Kd (in test [1]; in test [2]; on Ephrin type-A receptor 5; in test [3]; in test [5]; in [6]) was > 30 µM (inactive) throughout. The Kd (in test [7]; in test [8]; in [9]; at DNA topoisomerase 2-beta) was > 30 µM (inactive) each time.

Consider `NC[C@@](O)(c1ccc(Cl)cc1)c1ccc(-c2cn[nH]c2)cc1` [AT-13148], for which the Kd was > 30 µM (inactive) in test [1]; > 30 µM (inactive) in [2]; 0.027 µM (active) in test [4]; 0.025 µM (active) in test [5]; > 30 µM (inactive) in test [6]; 0.015 µM (active) in test [7]. Moreover, the Kd (in test [8]; in [9]; at DNA topoisomerase 2-beta) was > 30 µM (inactive) in each case.
